Experimental data: patent US20220267352A1, “RAPAMYCIN ANALOGS AND USES THEREOF” (Anakuria Therapeutics, Inc., priority 2021, published 2022)

Experiments:
Type in all cases: cell-based
[1] = system: p-p70 S6 Kinase (Thr389) in MCF-7 cells; experiment: AlphaLISA Ultra pS6K1 assay; details: Homo sapiens, 1.5 h; MCF7 cells, 90 min
Experimental: Example 55: AlphaLISA Ultra pS6K1 Assay
(§1) Assay Protocol: • 1. Seed MCF-7 cells in Corning 3701 plate and incubate for 20˜24 hour. 12,000˜16,000 cells will be seeded in 36 μL medium per well. • 2. Change the culture medium with fresh medium and incubate for another 2 hours. • 3. Add 12 μL (4×) compounds into the cell plate by HAMILTON. Final DMSO concentration is 0.5%. Incubate for 90 minutes. • 4. Aspirate 38 μL by HAMILTON, 10 μL rest per well. • 5. Add 10 μL 2× lysis buffer using HAMILTON; total volume in wells is 20 μL. Allow cells to shake for 30 min. Cover plate by plastic foil and store plate at −80° C. up to analysis. • 6. Thaw cell lysate at RT and transfer 10 μL lysate to assay plate (Optiplate-384). • 7. Add 5 μL acceptor beads into assay plate and incubation for 2 hours • 8. Add 5 μL donor beads and incubation for 2 hours • 9. Count the plate by EnSpire Multimode Plate Reader

[2] = system: p-Akt 1/2/3 (Ser473) in MCF-7 cells; experiment: AlphaLISA Ultra pAKT assay; details: Homo sapiens, 1.5 h; MCF7 cells, 90 min
Experimental: Example 56: AlphaLISA Ultra pAKT Assay
as §1, with “1.” for “1. Seed”, “16,000˜20,000” for “12,000˜16,000”, “90 minutes.” for “2 hours.”, “Incubate for 90 minutes. • 4.” left out

mTORC1 over mTORC2 = mTORC1 over mTORC2 selectivity by comparing pS6K1 and pAKT IC50; details: by comparing pS6K1 and pAKT IC50, 90 min
Experimental: as §1, with “Reader […]” for “Reader”
Compounds that are not selective by comparing pS6K1 and pAKT IC50 by kinase assays are indicated by “NO” in the “mTORC1 selective @ 90 min” column of Table 4. […] Compounds that are not selective at the 24 hrs mark are indicated by “NO” in the “mTORC1 selective @ 24 hrs” column of Table 4. “N/A” stands for “not assayed” and “N/C” stands for “not calculated”.

| SMILES | IC50 [1] [µM] | IC50 [2] [µM] | mTORC1 selective @ 90 min (mTORC1 over mTORC2) |
| --- | --- | --- | --- |
| CO[C@@H]1/C(C)=C/[C@@H](C)C(=O)C[C@@H]([C@H](C)C[C@@H]2CC[C@@H](OC)[C@H](OC)C2)OC(=O)[C@@H]2CCCCN2C(=O)C(=O)[C@]2(O)O[C@@H](CC[C@H]2C)CC(OCCOCCN)/C(C)=C/C=C/C=C/[C@@H](C)C[C@@H](C)C(=O)[C@@H]1OC (stereo partly drawn) [I-22] | 0.1 to 1 | ≥ 1 | Yes |
| CO[C@@H]1/C(C)=C/[C@@H](C)C(=O)C[C@@H]([C@H](C)C[C@@H]2CC[C@@H](OCCO)[C@H](OC)C2)OC(=O)[C@@H]2CCCCN2C(=O)C(=O)[C@]2(O)O[C@@H](CC[C@H]2C)CC(OCCOCCN)/C(C)=C/C=C/C=C/[C@@H](C)C[C@@H](C)C(=O)[C@@H]1OC (stereo partly drawn) [I-23, (22E,24E,26E,27E,35R,36S,37R,38R,40S,42S,45S,46R,47R,56R)-44-[2-(2-aminoethoxy)ethoxy]-56-hydroxy-45-[(1R)-2-[(1S,3R,4R)-4-(2-hydroxyethoxy)-3-methoxy-cyclohexyl]-1-methyl-ethyl]-46,47-dimethoxy-35,36,37,38,48,49-hexamethyl-66,67-dioxa-58-azatricyclohexatriaconta-22,24,26(48),27(49)-tetraene-50,51,52,53,54-pentone] | 0.1 to 1 | ≥ 1 | Yes |
| CO[C@@H]1/C(C)=C/[C@@H](C)C(=O)C[C@@H]([C@H](C)C[C@@H]2CC[C@@H](OP(C)(C)=O)[C@H](OC)C2)OC(=O)[C@@H]2CCCCN2C(=O)C(=O)[C@]2(O)O[C@@H](CC[C@H]2C)C[C@H](OCC2COCCO2)/C(C)=C/C=C/C=C/[C@@H](C)C[C@@H](C)C(=O)[C@@H]1OC (stereo partly drawn) [I-25, (27E,29E,31E,32E,35R,36S,37R,38R,40S,42S,44S,45S,47R,48R,57R)-45-[(1R)-2-[(1S,3R,4R)-4-dimethylphosphoryloxy-3-methoxy-cyclohexyl]-1-methyl-ethyl]-44-(1,4-dioxan-2-ylmethoxy)-57-hydroxy-47,48-dimethoxy-35,36,37,38,49,50-hexamethyl-68,69-dioxa-58-azatricyclohexatriaconta-27,29,31(49),32(50)-tetraene-51,52,53,54,55-pentone] | 0.01 to 0.1 | ≥ 1 | Yes |
| COCCOCCO[C@@H]1C[C@@H]2CC[C@@H](C)[C@@](O)(O2)C(=O)C(=O)N2CCCC[C@H]2C(=O)O[C@H]([C@H](C)C[C@@H]2CC[C@@H](OC)[C@H](OC)C2)CC(=O)[C@H](C)/C=C(\C)[C@@H](OC)[C@@H](OC)C(=O)[C@H](C)C[C@H](C)/C=C/C=C/C=C/1C [I-30, (24E,26E,28E,29E,35R,36S,37R,38R,40S,42S,44R,45S,46R,47R,56R)-45-[(1R)-2-[(1S,3R,4R)-3,4-dimethoxycyclohexyl]-1-methyl-ethyl]-56-hydroxy-46,47-dimethoxy-44-[2-(2-methoxyethoxy)ethoxy]-35,36,37,38,48,49-hexamethyl-64,65-dioxa-57-azatricyclohexatriaconta-24,26,28(48),29(49)-tetraene-50,51,52,53,54-pentone] | 0.01 to 0.1 | ≥ 1 | Yes |
| COCCOCCO[C@@H]1C[C@@H]2CC[C@@H](C)[C@@](O)(O2)C(=O)C(=O)N2CCCC[C@H]2C(=O)O[C@H]([C@H](C)C[C@@H]2CC[C@@H](OP(C)(C)=O)[C@H](OC)C2)CC(=O)[C@H](C)/C=C(\C)[C@@H](OC)[C@@H](OC)C(=O)[C@H](C)C[C@H](C)/C=C/C=C/C=C/1C [I-33, (25E,27E,29E,30E,36R,37S,38R,39R,41S,43S,45R,46S,47R,48R,57R)-46-[(1R)-2-[(1S,3R,4R)-4-dimethylphosphoryloxy-3-methoxy-cyclohexyl]-1-methyl-ethyl]-57-hydroxy-47,48-dimethoxy-45-[2-(2-methoxyethoxy)ethoxy]-36,37,38,39,49,50-hexamethyl-66,67-dioxa-58-azatricyclohexatriaconta-25,27,29(49),30(50)-tetraene-51,52,53,54,55-pentone] | 0.001 to 0.01 | ≥ 1 | Yes |

The next lines start with results.

| IC50 [1] [µM] | IC50 [2] [µM] | SMILES | mTORC1 selective @ 90 min (mTORC1 over mTORC2) |
| --- | --- | --- | --- |
| 0.001 to 0.01 | ≥ 1 | CO[C@@H]1C[C@H](C[C@@H](C)[C@@H]2CC(=O)[C@H](C)/C=C(\C)[C@@H](O)[C@@H](OC)C(=O)[C@H](C)C[C@H](C)/C=C/C=C/C=C(\C)C(OCCOC3COC3)C[C@@H]3CC[C@@H](C)[C@@](O)(O3)C(=O)C(=O)N3CCCC[C@H]3C(=O)O2)CC[C@H]1OCCCN1CCN(C)CC1 (stereo partly drawn) [I-15, (28E,30E,32E,33E,40R,41S,42R,43R,45S,47S,50S,52R,53R,62R)-52,62-dihydroxy-53-methoxy-50-[(1R)-2-[(1S,3R,4R)-3-methoxy-4-[3-(4-methylpiperazin-1-yl)propoxy]cyclohexyl]-1-methyl-ethyl]-40,41,42,43,54,55-hexamethyl-49-[2-(oxetan-3-yloxy)ethoxy]-74,75-dioxa-65-azatricyclohexatriaconta-28,30,32(54),33(55)-tetraene-56,57,58,59,60-pentone] | Yes |
| 0.001 to 0.01 | ≥ 1 | CO[C@@H]1C[C@H](C[C@@H](C)[C@@H]2CC(=O)[C@H](C)/C=C(\C)[C@@H](O)[C@@H](OC)C(=O)[C@H](C)C[C@H](C)/C=C/C=C/C=C(\C)[C@H](OCCOC3COC3)C[C@@H]3CC[C@@H](C)[C@@](O)(O3)C(=O)C(=O)N3CCCC[C@H]3C(=O)O2)CC[C@H]1OC(=O)N(C)CCN1CCOCC1 [I-17, [(43S,45R,47R)-4-[(2R)-2-[(28E,30E,32E,33E,39R,40S,41R,42R,44S,46S,48R,49S,51R,52R,62R)-51,62-dihydroxy-52-methoxy-39,40,41,42,53,54-hexamethyl-48-[2-(oxetan-3-yloxy)ethoxy]-55,56,57,58,59-pentaoxo-76,77-dioxa-64-azatricyclohexatriaconta-28,30,32(53),33(54)-tetraen-49-yl]propyl]-47-methoxy-45-cyclohexyl] N-methyl-N-(2-morpholinoethyl)carbamate] | Yes |
| < 0.001 | ≥ 1 | CO[C@@H]1C[C@H](C[C@@H](C)[C@@H]2CC(=O)[C@H](C)/C=C(\C)[C@@H](O)[C@@H](OC)C(=O)[C@H](C)C[C@H](C)/C=C/C=C/C=C(\C)C(OCCOC3COC3)C[C@@H]3CC[C@@H](C)[C@@](O)(O3)C(=O)C(=O)N3CCCC[C@H]3C(=O)O2)CC[C@H]1OC(=O)NCCN1CCOCC1 (stereo partly drawn) [I-19, [(42S,44R,46R)-4-[(2R)-2-[(27E,29E,31E,32E,38R,39S,40R,41R,43S,45S,48S,50R,51R,61R)-50,61-dihydroxy-51-methoxy-38,39,40,41,52,53-hexamethyl-47-[2-(oxetan-3-yloxy)ethoxy]-54,55,56,57,58-pentaoxo-75,76-dioxa-64-azatricyclohexatriaconta-27,29,31(52),32(53)-tetraen-48-yl]propyl]-46-methoxy-44-cyclohexyl] N-(2-morpholinoethyl)carbamate] | Yes |
| 0.001 to 0.01 | ≥ 1 | CO[C@@H]1C[C@H](C[C@@H](C)[C@@H]2CC(=O)[C@H](C)/C=C(\C)[C@@H](O)[C@@H](OC)C(=O)[C@H](C)C[C@H](C)/C=C/C=C/C=C(\C)[C@H](OCCOC3COC3)C[C@@H]3CC[C@@H](C)[C@@](O)(O3)C(=O)C(=O)N3CCCC[C@H]3C(=O)O2)CC[C@H]1OC(=O)NCCN1CCOCC1 [I-20, [(42S,44R,46R)-4-[(2R)-2-[(27E,29E,31E,32E,38R,39S,40R,41R,43S,45S,47R,48S,50R,51R,61R)-50,61-dihydroxy-51-methoxy-38,39,40,41,52,53-hexamethyl-47-[2-(oxetan-3-yloxy)ethoxy]-54,55,56,57,58-pentaoxo-75,76-dioxa-64-azatricyclohexatriaconta-27,29,31(52),32(53)-tetraen-48-yl]propyl]-46-methoxy-44-cyclohexyl] N-(2-morpholinoethyl)carbamate] | Yes |
